# Read-outs that look alike come from different tables or passages of the source.
# Experiments:
# [1] = system: IL2 activation in human PBMC; test: IL2 activity assay (ELISA) in human PBMC; format: cell-based; conditions: CD3/CD28 antibody, 24 h
# Description: The compound was diluted with DMSO in a dilution plate, with a maximum starting concentration of 10 μM, 8 concentration gradient points (3-fold dilution), and then added to the 96-well plate along with the addition of 5 µg/ml CD28 antibody. Incubation was performed for 24 h. • (3) The ELISA plate was washed twice with PBS, and an ELISA dilution was added at 100 µl/well. Then 100 μl of the standard and the incubated samples obtained in step 2 were added separately, and incubated for 2 h at room temperature. • (4) Each well was washed 3 times by adding with 400 μl washing buffer per well, and was finally blotted to dryness with a clean absorbent paper. • (5) 200 μl of the IL2 conjugate was added per well, covered with a fresh tape, and incubated for 2 h at room temperature. Step (4) was repeated. • (6) 200 μl of the substrate was added per well under the protection from light. The plate was incubated at room temperature for 20 min. • (7) 50 μL of a stop solution was added per well. The color of the wells should be from blue to yellow. Signals at […] were read by a microplate reader, and the signal intensity was used to characterize the activity level of IL2. EC50 values were obtained by fitting using the Prism software.
# human HPK1 [2] = biological target: T1, human HPK1 (Homo sapiens, UniProt Q92918); test: Assay of in vitro HPK1 enzymatic activity (ADP-Glo); format: biochemical; conditions: 7 nM kinase, 20 uM ATP
# T1 sequence (Q92918 whole entry): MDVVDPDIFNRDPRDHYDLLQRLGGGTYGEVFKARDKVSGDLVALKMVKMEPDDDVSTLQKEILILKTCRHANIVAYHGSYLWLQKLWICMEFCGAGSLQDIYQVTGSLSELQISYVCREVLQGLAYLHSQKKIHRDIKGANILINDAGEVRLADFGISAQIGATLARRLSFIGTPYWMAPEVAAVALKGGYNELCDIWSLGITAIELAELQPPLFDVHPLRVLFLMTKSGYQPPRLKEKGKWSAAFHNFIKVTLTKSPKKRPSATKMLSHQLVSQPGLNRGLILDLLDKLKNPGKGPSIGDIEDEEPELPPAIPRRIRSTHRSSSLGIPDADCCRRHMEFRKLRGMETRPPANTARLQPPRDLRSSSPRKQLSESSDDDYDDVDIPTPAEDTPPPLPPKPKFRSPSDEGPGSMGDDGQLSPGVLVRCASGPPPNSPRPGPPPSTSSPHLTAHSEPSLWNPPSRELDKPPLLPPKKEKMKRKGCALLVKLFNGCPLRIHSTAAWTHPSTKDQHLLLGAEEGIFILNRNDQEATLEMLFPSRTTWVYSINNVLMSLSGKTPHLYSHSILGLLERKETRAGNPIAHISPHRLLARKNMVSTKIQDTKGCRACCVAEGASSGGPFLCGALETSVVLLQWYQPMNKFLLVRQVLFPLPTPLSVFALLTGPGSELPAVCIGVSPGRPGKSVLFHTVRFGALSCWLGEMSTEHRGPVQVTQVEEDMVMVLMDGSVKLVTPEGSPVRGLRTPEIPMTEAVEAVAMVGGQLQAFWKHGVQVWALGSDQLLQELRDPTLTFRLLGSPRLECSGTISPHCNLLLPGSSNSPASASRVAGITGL
# Description: Compounds were evaluated for their ability to inhibit human HPK1 by IC50 determination using the ADP-Glo method to measure the kinase activity.
# Buffer conditions of the enzyme: 50 mM Hepes (pH 7.5), 10 mM MgCl2, 1 mM EGTA, 0.01% Brij35, 2 mM DTT.
# Preparation of the Kinase and substrate mixture: the working concentration of the kinase in the HPK1 reaction solution was 7 nM and the working concentration of ATP was 20 uM.
# The compound was diluted with DMSO in a dilution plate, with a maximum starting concentration of 1 uM and 10 concentration gradient points (4-fold dilution).
# Each of the above 10 concentration gradient points of the compound was then diluted 50-fold into the kinase reaction buffer and shaken on a shaker for 20 min. The kinase was prepared in an enzyme reaction buffer and 2 μl of the HPK1 kinase was added per well of the reaction plate at a HPK1 kinase concentration of 7 nM.
# 1 μl of diluted compound in the buffer was added per well, and the plate was sealed with a plate sealing film, centrifuged at 1000 g for 30 seconds, and left at room temperature for 10 minutes. An ATP solution was prepared with an enzyme reaction buffer and 2 μl of the ATP solution was added to the reaction plate (the working concentration of ATP was 20 uM). The plate was sealed with a plate sealing film, centrifuged at 1000 g for 30 seconds, and reacted at room temperature for 60 minutes. 4 μL of ADP-Glu was transferred to a 384 reaction plate, centrifuged at 1000 rpm/min for 1 min, and incubated at 25° C. for 40 min. 8 μL of the Detection solution was transferred to a 384 reaction plate, centrifuged at 1000 rpm/min for 1 min, and incubated at 25° C. for 40 min. The RLU (Relative luminescence unit) signal was read using a BMG microplate reader, and the signal intensity was used to characterize the activity level of the kinase.
# The kinase activity data was expressed by comparing the kinase activity of the test compound and the blank group (containing only DMSO), and the IC50 value was obtained by curve fitting using the Prism software (GraphPad7.0).
# human HPK1 [3] = biological target: T1, human HPK1; test: HPK1 protein degradation assay (WB) in RAMOS cell line; format: cell-based; set-up: The RAMOS cell line was selected as the degradation cell line; endogenous in cells; host or cells: RAMOS; conditions: RAMOS cells, 16 h, Western blot
# Description: Degradation of HPK1 proteins and DC50/Dmax were determined by the WB method in order to evaluate the in vitro degradative ability of the compound.
# The RAMOS cell line was selected as the degradation cell line. Incubation Conditions: RMPI 1640 culture medium supplemented with 10% FBS, 37° C., 5% CO2.
# • (1) Plating cells: in a 6 cm dish with 4 ml of the culture medium, cells plated at 2×10^6 cells/dish. • (2) Drug addition: the compound (stock solution concentration: 10 mM) was diluted with DMSO in a dilution plate, with a maximum starting concentration of 10 μM and 7 concentration gradient points (3-fold dilution). 4 μl of each diluted solution was taken, added to a dish, and incubated for 16 h. • (3) Cells were harvested, added with a lysis buffer, and centrifuged at 12000 rpm/min for 20 min. The supernatant was collected. After quantification using a BCA quantification kit, 5× loading buffer was added to denature for 10 min. • (4) 10 μg of denatured protein was added to the SDS-PAGE gel. After electrophoresis and membrane transfer, the plate was blocked with 5% BSA for 1 h, incubate with the primary antibody at 4° C. overnight. After washing off the primary antibody, the secondary antibody was added, incubated at room temperature for 1 h, and washed off.
# Imaging: the membranes were scanned with a two-color fluorescence imaging system.
# [4] = Pharmacokinetics of single administration in mice; format: in vivo, Balb/c mice; set-up: Vz: unit not given here; conditions: for clearance / half-life / AUC / bioavailability / Cmax: female, Balb/c, mouse, plasma; for AUC: read-out: AUC; for bioavailability: po 10 mg/kg vs iv 2 mg/kg; for Cmax: read-out: Cmax
# Description: Female Balb/c mice (weighing 18-22 g) were fasted overnight prior to the experiment. The test compound was dissolved in the vehicle, DMSO:PEG400:30% captisol:HCl=5:20:70:5 (v/v/v/v), and administered by single oral gavage at a dose of 10 mg/kg or by intravenous injection at a dose of 2 mg/kg. Blood samples were collected from the orbital venous plexus at 15 minutes, 30 minutes, and 1, 2, 4, 6, 8, and 24 h after administration. Approximately 0.08 mL of blood was collected at each time point and placed in a 1.5 mL centrifuge tube containing EDTA-2K anticoagulant. Blood samples were centrifuged (3200 g, 10 min, 4° C.) within 2 h to obtain plasma samples. Plasma samples were frozen at −70° C. to −80° C. in an ultra-low temperature freezer prior to processing. Before sample processing, the plasma samples were taken out of the freezer. After thawing at room temperature, 20 μL of each plasma sample was added into a 96-well plate, and then 120 μL of acetonitrile containing an internal standard was added to precipitate proteins. […] The supernatant was taken and mixed with an equal volume of 0.1% aqueous formic acid solution for LC-MS/MS analysis.
IC50 (human HPK1 [2]),DC50 (human HPK1 [3]),Dmax (human HPK1 [3]),clearance ([4]; iv 2 mg/kg),half-life ([4]; iv 2 mg/kg),AUC ([4]; iv 2 mg/kg),half-life ([4]; po 10 mg/kg),bioavailability [4],AUC ([4]; po 10 mg/kg),Cmax ([4]; po 10 mg/kg),Vz ([4]; iv 2 mg/kg),SMILES,EC50 [1]
0.0005 µM,,,,,,,,,,,CCN1CCC(n2cc(-c3c[nH]c4ncc(-c5ccc(N6CCN(C7CCC(NC(=O)c8ccc(Cl)c(N9CCC(=O)NC9=O)c8)CC7)CC6)c(C)c5)nc34)cn2)CC1 (centres unmarked) [Compound C021],0.0379 µM
0.0032 µM,,,,,,,,,,,CCN1CCC(n2cc(-c3c[nH]c4ncc(-c5cnc(OCC(=O)Nc6ccc(NC7CCC(=O)NC7=O)cc6)c(C)c5)nc34)cn2)CC1 (centres unmarked) [Compound C006],0.179 µM
,0.0522 µM,87.1%,6.9 mL/min/kg,0.7 h,4830 ng·h/mL,4.22 h,27.6%,6670 ng·h/mL,1390 ng/mL,1329,O=C1CCN(c2cc(C(=O)N3CCC(CC4CCN(c5ccc(-c6cnc7[nH]cc(-c8cnn(C9CC9)c8)c7n6)cn5)CC4)CC3)ccc2Cl)C(=O)N1 [Compound C170],0.0238 µM
0.0018 µM,,,,,,,,,,,CCN1CCC(n2cc(-c3c[nH]c4ncc(-c5cnc(N6CCN(C7CCC(NC(=O)c8ccc(Cl)c(N9CCC(=O)NC9=O)c8)CC7)CC6)c(C)c5)nc34)cn2)CC1 (centres unmarked) [Compound C018],0.102 µM
0.0023 µM,0.0021 µM,77%,,,,,,,,,CCN1CCC(n2cc(-c3c[nH]c4ncc(-c5ccc(N6CCC(CC7CCN(C(=O)c8ccc(Cl)c(N9CCC(=O)NC9=O)c8)CC7)CC6)nc5)nc34)cn2)CC1 [Compound C024],0.196 µM
0.0014 µM,0.055 µM,86%,,,,,,,,,CCN1CCC(n2cc(-c3c[nH]c4ncc(-c5cnc(OCCNC(=O)c6ccc(Cl)c(N7CCC(=O)NC7=O)c6)c(C)c5)nc34)cn2)CC1 [Compound C022],0.0956 µM
0.0009 µM,,,,,,,,,,,CCN1CCC(n2cc(-c3c[nH]c4ncc(-c5cnc(N6CCN(C7CCC(NC(=O)c8cccc(N9CCC(=O)NC9=O)c8)CC7)CC6)c(C)c5)nc34)cn2)CC1 (centres unmarked) [Compound C017],0.324 µM
,0.00935 µM,93%,8.27 mL/min/kg,0.98 h,4030 ng·h/mL,3.35 h,17.7%,2210 ng·h/mL,840 ng/mL,701.3,C/C(=C(Cl)\C=C/CC(=O)N1CCC(CC2CCN(c3ccc(-c4cnc5[nH]cc(-c6cnn(C)c6)c5n4)cn3)CC2)CC1)N1CCC(=O)NC1=O [Compound C110],0.0556 µM
,0.0292 µM,86.5%,12.6 mL/min/kg,0.7 h,2640 ng·h/mL,1.66 h,28%,3690 ng·h/mL,1370 ng/mL,763,CCn1cc(-c2c[nH]c3ncc(-c4ccc(N5CCC(CC6CCN(C(=O)c7ccc(Cl)c(N8CCC(=O)NC8=O)c7)CC6)CC5)nc4)nc23)cn1 [Compound C162],0.0273 µM
,0.0126 µM,88.8%,10.7 mL/min/kg,1.25 h,5330 ng·h/mL,3.19 h,29.6%,7960 ng·h/mL,2460 ng/mL,602,[2H]C([2H])([2H])n1cc(-c2c[nH]c3ncc(-c4ccc(N5CCC(CC6CCN(C(=O)c7ccc(Cl)c(N8CCC(=O)NC8=O)c7)CC6)CC5)nc4)nc23)cn1 [Compound C160],0.0455 µM
0.0036 µM,,,,,,,,,,,CCN1CCC(n2cc(-c3c[nH]c4ncc(-c5cnc(N6CCN(CC7CCN(C(=O)c8ccc(Cl)c(N9CCC(=O)NC9=O)c8)CC7)CC6)c(C)c5)nc34)cn2)CC1 [Compound C003],0.111 µM

# Source: patent US20260116884A1, “PROTAC CHIMERIC COMPOUND, PREPARATION METHOD THEREFOR AND USE THEREOF” (HANGZHOU ZHONGMEIHUADONG PHARMACEUTICAL CO., LTD., priority 2022, published 2026)
